From patent publication US10206937B2, “Boronic acid derivatives and therapeutic uses thereof” (Qpex Biopharma, Inc., priority 2014, dated 2019)

System: strains of Enterobacteriaceae producing various carbapenemases (class A, D and B; 104 strains)
Assay: Antibiotics potentiation by Compound 27 (MIC; meropenem, doripenem, ertapenem, cefepime)
Type: cell-based
Details: + 27 = with Compound 27 at fixed 4 μg/ml

## C[C@@H](O)[C@H]1C(=O)N2C(C(=O)O)=C(S[C@@H]3CN[C@H](CNS(N)(=O)=O)C3)[C@H](C)[C@H]12 [D]
Strain KP1081 Klebsiella pneumoniae (NDM-1, TEM-1, SHV-11, CMY-6, CTX-M-15)
  MIC: Z (MIC of greater than 10 μg/mL)
Strain KP1082 Klebsiella pneumoniae (KPC-2, SHV-1)
  MIC: Y (MIC of 1 μg/mL to 10 μg/mL)
Strain KP1083 Klebsiella pneumoniae (KPC-3, SHV-1, TEM-1)
  MIC: Y (MIC of 1 μg/mL to 10 μg/mL)
Strain KP1084 Klebsiella pneumoniae (KPC-3, SHV-11, TEM-1)
  MIC: Z (MIC of greater than 10 μg/mL)
Strain KP1086 Klebsiella pneumoniae (OXA-48, CTX-M-15, TEM, SHV)
  MIC: Z (MIC of greater than 10 μg/mL)
Strain KP1087 Klebsiella pneumoniae (KPC-2, CTX-M-15, SHV-11, TEM-1)
  MIC: Z (MIC of greater than 10 μg/mL)
Strain KP1088 Klebsiella pneumoniae (KPC-3, SHV-11, TEM-1)
  MIC: Y (MIC of 1 μg/mL to 10 μg/mL)
Strain KP1089 Klebsiella pneumonias (OXA-181, CTX-M-15, TEM, SHV)
  MIC: Y (MIC of 1 μg/mL to 10 μg/mL)
Strain KP1095 Klebsiella pneumoniae (KPC-2 TEM-1 SHV-1)
  MIC: Y (MIC of 1 μg/mL to 10 μg/mL)
Strain KP1096 Klebsiella pneumoniae (KPC-2 TEM-181 SHV-11)
  MIC: Y (MIC of 1 μg/mL to 10 μg/mL)
Strain KP1097 Klebsiella pneumonias (IMP-1)
  MIC: Z (MIC of greater than 10 μg/mL)
Strain KP1098 Klebsiella pneumoniae (IMP-26)
  MIC: Z (MIC of greater than 10 μg/mL)
Strain KP1104 Klebsiella pneumoniae (KPC TEM)
  MIC: Z (MIC of greater than 10 μg/mL)
Strain KP1105 Klebsiella pneumoniae (KPC TEM SHV)
  MIC: Y (MIC of 1 μg/mL to 10 μg/mL)
Strain KP1159 Klebsiella pneumoniae (SHV-1(2b); CTX-M-15; IMP-4)
  MIC: Z (MIC of greater than 10 μg/mL)
Strain KP1160 Klebsiella pneumoniae (SHV-28(2be); CTX-M-15; IMP-26)
  MIC: Z (MIC of greater than 10 μg/mL)
Strain KP1161 Klebsiella pneumoniae (NDM-1)
  MIC: Z (MIC of greater than 10 μg/mL)
Strain KP1164 Klebsiella pneumoniae (SHV-12(2be); VIM-1)
  MIC: Z (MIC of greater than 10 μg/mL)
Strain KP1165 Klebsiella pneumoniae (SHV-11(2b); CTX-M-15; VIM-27)
  MIC: Z (MIC of greater than 10 μg/mL)
Strain KP1166 Klebsiella pneumoniae (SHV-5(2be); VIM-26)
  MIC: Z (MIC of greater than 10 μg/mL)
Strain KP1167 Klebsiella pneumoniae (SHV-12(2be); VIM-1)
  MIC: X (MIC of less than 1 μg/mL)
Strain KP1169 Klebsiella pneumoniae (SHV-11(2b); VIM-1)
  MIC: Z (MIC of greater than 10 μg/mL)
Strain KP1170 Klebsiella pneumoniae (SHV-11(2b); CTX-M-15; NDM-1)
  MIC: Z (MIC of greater than 10 μg/mL)
Strain KP1172 Klebsiella pneumoniae (SHV-31(2be); DHA-1; VIM-1)
  MIC: Z (MIC of greater than 10 μg/mL)
Strain KP1173 Klebsiella pneumoniae (TEM-33(2br); CTX-M-15; IMP-1)
  MIC: Y (MIC of 1 μg/mL to 10 μg/mL)
Strain KP1174 Klebsiella pneumoniae (CTX-M-14; IMP-1)
  MIC: Z (MIC of greater than 10 μg/mL)
Strain KP1175 Klebsiella pneumoniae (SHV-OSBL(2b); VIM-1)
  MIC: Z (MIC of greater than 10 μg/mL)
Strain KP1177 Klebsiella pneumoniae (SHV-OSBL(2b), TEM-OSBL(2b); CTX-M-15; NDM-1)
  MIC: Z (MIC of greater than 10 μg/mL)
Strain KP1178 Klebsiella pneumoniae (SHV-OSBL(2b;) TEM-OSBL(2b); CTX-M-15; NDM-1)
  MIC: Z (MIC of greater than 10 μg/mL)
Strain KP1179 Klebsiella pneumoniae (SHV-12(2be), TEM-OSBL(2b); CTX-M-15; NDM-7)
  MIC: Z (MIC of greater than 10 μg/mL)
Strain KP1180 Klebsiella pneumoniae (SHV-OSBL(2b), TEM-OSBL(2b); CTX-M-15; DHA-1; IMP-26)
  MIC: Y (MIC of 1 μg/mL to 10 μg/mL)
Strain KP1181 Klebsiella pneumoniae (SHV-OSBL(2b); CTX-M-15; IMP-26)
  MIC: Y (MIC of 1 μg/mL to 10 μg/mL)
Strain KP1183 Klebsiella pneumoniae (SHV-OSBL(2b), TEM-OSBL(2b); CTX-M-15; NDM-1)
  MIC: Z (MIC of greater than 10 μg/mL)
Strain KP1184 Klebsiella pneumoniae (SHV-OSBL(2b); IMP-1)
  MIC: Y (MIC of 1 μg/mL to 10 μg/mL)
Strain KP1185 Klebsiella pneumoniae (SHV-OSBL(2b), TEM-OSBL(2b); IMP-4)
  MIC: Z (MIC of greater than 10 μg/mL)
Strain KP1186 Klebsiella pneumoniae (CTX-M-15; NDM-1)
  MIC: Z (MIC of greater than 10 μg/mL)
Strain KP1187 Klebsiella pneumoniae (SHV-55(2be), TEM-OSBL(2b); CTX-M-15; NDM-1)
  MIC: Z (MIC of greater than 10 μg/mL)
Strain KP1188 Klebsiella pneumoniae (SHV-OSBL(2b); CTX-M-15; NDM-1)
  MIC: Z (MIC of greater than 10 μg/mL)
Strain KP1189 Klebsiella pneumoniae (TEM-OSBL(2b); CTX-M-15; CTX-M-27; NDM-1)
  MIC: Z (MIC of greater than 10 μg/mL)
Strain KPM1123 Klebsiella pneumoniae (KPC-2 TEM SHV)
  MIC: Y (MIC of 1 μg/mL to 10 μg/mL)
Strain KPM1202 Klebsiella pneumoniae (KPC SHV TEM)
  MIC: Y (MIC of 1 μg/mL to 10 μg/mL)
Strain KPM1203 Klebsiella pneumoniae (KPC SHV TEM)
  MIC: Y (MIC of 1 μg/mL to 10 μg/mL)
Strain KPM1344 Klebsiella pneumoniae (VIM-1)
  MIC: Y (MIC of 1 μg/mL to 10 μg/mL)
Strain KPM1345 Klebsiella pneumoniae (VIM-1 SHV)
  MIC: Z (MIC of greater than 10 μg/mL)
Strain KPM1347 Klebsiella pneumoniae (NDM-1 SHV CTX-M-15)
  MIC: Z (MIC of greater than 10 μg/mL)
Strain KX1017 Klebsiella oxytoca (KPC-2, OXA-2, SHV-30)
  MIC: Y (MIC of 1 μg/mL to 10 μg/mL)
Strain KX1018 Klebsiella oxytoca (KPC-2, SHV-40, OXY-1)
  MIC: Y (MIC of 1 μg/mL to 10 μg/mL)
Strain KX1019 Klebsiella oxytoca (KPC-2, OXA-2)
  MIC: Y (MIC of 1 μg/mL to 10 μg/mL)
Strain PM1024 Proteus mirabilis (TEM-1(2b); CMY-16; VIM-1)
  MIC: Z (MIC of greater than 10 μg/mL)
Strain PM1026 Proteus mirabilis (DHA-1; IMP-26)
  MIC: Z (MIC of greater than 10 μg/mL)
Strain PM1027 Proteus mirabilis (VIM-5)
  MIC: Y (MIC of 1 μg/mL to 10 μg/mL)
Strain SM1023 Serratia marcescens (VIM-4)
  MIC: Z (MIC of greater than 10 μg/mL)
